Laboratory results reported in patent US9089509B2, “Method of treatment of age-related macular degeneration” (YEDA RESEARCH AND DEVELOPMENT CO., LTD., priority 2006, dated 2015).

Assays:
[1] = test system: neural stem/progenitor cells (NPCs) co-cultured with microglia; assay: Co-culture of GFP-expressing neural progenitor cells with treated microglia, neurogenesis (GFP+/βIII-T+ cells); format: cell-based, mouse
Method: Coronal sections (2 mm thick) of tissue containing the subventricular zone of the lateral ventricle were obtained from the brains of adult C57Bl/6J mice. The tissue was minced and then incubated for digestion at 37° C., 5% CO2 for 45 min in Earle's balanced salt solution containing 0.94 mg/ml papain (Worthington, Lakewood, N.J.) and 0.18 mg/ml of L-cysteine and EDTA. After centrifugation at 110×g for 15 min at room temperature, the tissue was mechanically dissociated by pipette trituration. Cells obtained from single-cell suspensions were plated (3500 cells/cm^2) in 75-cm^2 Falcon tissue-culture flasks (BD Biosciences, San Diego, Calif.), in neural stem/progenitor cell (NPC)-culturing medium [Dulbecco's modified Eagles's medium (DMEM)/F12 medium (Gibco/Invitrogen, Carlsbad, Calif.) containing 2 mM L-glutamine, 0.6% glucose, 9.6 μg/ml putrescine, 6.3 ng/ml progesterone, 5.2 ng/ml sodium selenite, 0.02 mg/ml insulin, 0.1 mg/ml transferrin, 2 μg/ml heparin (all from Sigma-Aldrich, Rehovot, Israel), fibroblast growth factor-2 (human recombinant, 20 ng/ml), and epidermal growth factor (human recombinant, 20 ng/ml; both from Peprotech, Rocky Hill, N.J.)]. Spheres were passaged every 4-6 days and replated as single cells. Green fluorescent protein (GFP)-expressing NPCs were obtained as previously described (Pluchino et al., 2003).
Brains from neonatal (P0-P1) C57Bl/6J mice were stripped of their meninges and minced with scissors under a dissecting microscope (Zeiss, Stemi DV4, Germany) in Leibovitz-15 medium (Biological Industries, Kibbutz Beit Ha-Emek, Israel). After trypsinization (0.5% trypsin, 10 min, 37° C./5% CO2), the tissue was triturated. The cell suspension was washed in culture medium for glial cells [DMEM supplemented with 10% fetal calf serum (FCS; Sigma-Aldrich, Rehovot), L-glutamine (1 mM), sodium pyruvate (1 mM), penicillin (100 U/ml), and streptomycin ([…])] and cultured at 37° C./5% CO2 in 75-cm^2 Falcon tissue-culture flasks (BD Biosciences) coated with poly-D-lysine (PDL) (10 mg/ml; Sigma-Aldrich, Rehovot) in borate buffer (2.37 g borax and 1.55 g boric acid dissolved in 500 ml sterile water, pH 8.4) for 1 h, then rinsed thoroughly with sterile, glass-distilled water. Half of the medium was changed after 6 h in culture and every 2nd day thereafter, starting on day 2, for a total culture time of 10-14 days. […]

microglia = assay: CD11c expression and morphology in primary culture of mouse microglia; format: cell-based; conditions: microglia, 10 ng/ml (FIGS. 8A-8D)
Method: Brains from neonatal (P0-P1) C57Bl/6J mice were stripped of their meninges and minced with scissors under a dissecting microscope (Zeiss, Stemi DV4, Germany) in Leibovitz-15 medium (Biological Industries, Kibbutz Beit Ha-Emek, Israel). After trypsinization (0.5% trypsin, 10 min, 37° C./5% CO2), the tissue was triturated. The cell suspension was washed in culture medium for glial cells [DMEM supplemented with 10% fetal calf serum (FCS; Sigma-Aldrich, Rehovot), L-glutamine (1 mM), sodium pyruvate (1 mM), penicillin (100 U/ml), and streptomycin ([…])] and cultured at 37° C./5% CO2 in 75-cm^2 Falcon tissue-culture flasks (BD Biosciences) coated with poly-D-lysine (PDL) (10 mg/ml; Sigma-Aldrich, Rehovot) in borate buffer (2.37 g borax and 1.55 g boric acid dissolved in 500 ml sterile water, pH 8.4) for 1 h, then rinsed thoroughly with sterile, glass-distilled water. Half of the medium was changed after 6 h in culture and every 2nd day thereafter, starting on day 2, for a total culture time of 10-14 days. Microglia were shaken off the primary mixed brain glial cell cultures (150 rpm, 37° C., 6 h) with maximum yields between days 10 and 14, seeded (10^5 cells/ml) onto PDL-pretreated 24-well plates (1 ml/well; Corning, N.Y., N.Y.), and grown in culture medium for microglia [RPMI-1640 medium (Sigma-Aldrich, Rehovot) supplemented with 10% FCS, L-glutamine (1 mM), sodium pyruvate (1 mM), β-mercaptoethanol ([…]), penicillin (100 U/ml), and streptomycin ([…])]. The cells were allowed to adhere to the surface of a PDL-coated culture flask (30 min, 37° C./5% CO2), and non-adherent cells were rinsed off.
Cover slips from co-cultures of NPCs and mouse microglia were washed with PBS, fixed as described above, treated with a permeabilization/blocking solution containing 10% FCS, 2% bovine serum albumin, 1% glycine, and 0.1% Triton X-100 (Sigma-Aldrich, Rehovot), and stained with a combination of mouse anti-[…] (anti-βIII-T) isoform C-terminus antibodies (1:500; Chemicon, Temecula, Calif.), rat anti-CD11b (MAC1; 1:50; BD—Pharmingen, Franklin Lakes, N.J.) and hamster anti-CD11c (1:100; eBioscience, San Diego, Calif.). To capture the microglia FITC- or Cy3-conjugated Bandeiraea simplicifolia isolectin B4 (IB-4; 1:50; Sigma-Aldrich, Rehovot) was used. To detect expression of human Aβ anti-Aβ (human amino-acid residues 1-17) (mouse, clone 6E10; Chemicon) was used.
On the basis of our previous findings, we suspected that the switch from a CD11b^+/CD11c^−/IGF-1^− to a CD11b^+/CD11c^+/IGF-I^+ microglial phenotype in the Cop-1 vaccinated Tg-AD mice might be attributable to IL-4. We examined this possibility in vitro. […] In contrast, the expression of CD11c induced by IL-4 was not transient. Quantification of the ability of IL-4 to induce CD11c expression even after the microglia were pretreated with Aβ is shown in FIG. 4D.
Thus, upregulation of CD11c on bone marrow derived myeloid cells by […] will allow the cells to reach injured sites and induce beneficial effect.

| Substance | counteracting the negative effect of Aβ-activated microglia on NPC survival and differentiation ([1]; cytokine 10 ng/ml added for 48 h after 48 h aggregated Aβ(1-40) 5 μM) | numbers of GFP+/βIII-T+ cells in co-cultures of NPCs with activated microglia ([1]; microglia activated with 10 ng/ml, co-culture 10 days, vs microglia-free control) | time to peak of CD11c upregulation after activation (microglia) [days] | effect of microglia activated by aggregated Aβ(1-40) on neurogenesis and NPC number ([1]; aggregated Aβ(1-40) 5 μM, 48 h pre-incubation, co-culture 10 days) |
| --- | --- | --- | --- | --- |
| IFN-γ: recombinant mouse IFN-γ | failed to reverse their negative effect on neurogenesis | dramatic increase | 2 to 3 |  |
| Aβ(1-40): β-amyloid peptide fragment 1-40, aggregated |  |  |  | blocked neurogenesis and decreased the number of NPCs |
